This passage reports IC50 results from patent publication US20230066011A1, “PYRROLOPYRIMIDINE DERIVATIVE, AND PHARMACEUTICAL COMPOSITION FOR PREVENTING OR TREATING PROTEIN KINASE-RELATED DISEASE COMPRISING SAME AS ACTIVE INGREDIENT” (VORONOI CO., LTD., priority 2019, published 2023).

The term IC50 denotes the concentration that gives 50% inhibition. The low end stands for higher potency, the high end for lower potency.

In one assay the target is LRRK2 (Homo sapiens, UniProt Q5S007). The assay is described as follows: LRRK2 enzyme inhibition, ADP-Glo kinase assay. Set-up: purchased Invitrogen PR8604B. The note with it: ATP 10 μM. The assay is classed as biochemical. A digest of the protocol:
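ADP-Glo luminescent read-out of ADP formed by purified human LRRK2 enzyme (25 ng), 10 μM ATP, 0.2 μg substrate, 25° C for 2 h, Tris-HCl pH 7.4 buffer with MgCl2, BSA, DTT. Inhibition versus untreated solvent control over twelve final concentrations (50 μM downward) gives IC50.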
(ADP-Glo first removes unused ATP, then detects ADP through luciferase.)

A further assay addresses T1, human GST-CLK1 (Homo sapiens, UniProt P49759).
T1 construct: purified human GST-CLK1 (129-end, SignalChem) enzyme; purchased SignalChem
The assay is described as follows: GST-CLK1 enzyme inhibition, ADP-Glo kinase assay. The assay is classed as biochemical. Conditions: ATP 10 μM, GST-CLK1 129-end. In short, it runs like this: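 ADP-Glo luminescence read-out, relative to untreated solvent control, gave IC50 (nM) from triplicate data sets. Reactions ran an hour at 25° C with 3 ng GST-CLK1 (residues 129-end), 10 μM ATP and specific substrate in Tris-HCl pH 7.4 buffer with MgCl2, BSA and DTT.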

Some results are limits rather than exact numbers.

LRRK2, sequence (Q5S007 970-2527 limits assumed): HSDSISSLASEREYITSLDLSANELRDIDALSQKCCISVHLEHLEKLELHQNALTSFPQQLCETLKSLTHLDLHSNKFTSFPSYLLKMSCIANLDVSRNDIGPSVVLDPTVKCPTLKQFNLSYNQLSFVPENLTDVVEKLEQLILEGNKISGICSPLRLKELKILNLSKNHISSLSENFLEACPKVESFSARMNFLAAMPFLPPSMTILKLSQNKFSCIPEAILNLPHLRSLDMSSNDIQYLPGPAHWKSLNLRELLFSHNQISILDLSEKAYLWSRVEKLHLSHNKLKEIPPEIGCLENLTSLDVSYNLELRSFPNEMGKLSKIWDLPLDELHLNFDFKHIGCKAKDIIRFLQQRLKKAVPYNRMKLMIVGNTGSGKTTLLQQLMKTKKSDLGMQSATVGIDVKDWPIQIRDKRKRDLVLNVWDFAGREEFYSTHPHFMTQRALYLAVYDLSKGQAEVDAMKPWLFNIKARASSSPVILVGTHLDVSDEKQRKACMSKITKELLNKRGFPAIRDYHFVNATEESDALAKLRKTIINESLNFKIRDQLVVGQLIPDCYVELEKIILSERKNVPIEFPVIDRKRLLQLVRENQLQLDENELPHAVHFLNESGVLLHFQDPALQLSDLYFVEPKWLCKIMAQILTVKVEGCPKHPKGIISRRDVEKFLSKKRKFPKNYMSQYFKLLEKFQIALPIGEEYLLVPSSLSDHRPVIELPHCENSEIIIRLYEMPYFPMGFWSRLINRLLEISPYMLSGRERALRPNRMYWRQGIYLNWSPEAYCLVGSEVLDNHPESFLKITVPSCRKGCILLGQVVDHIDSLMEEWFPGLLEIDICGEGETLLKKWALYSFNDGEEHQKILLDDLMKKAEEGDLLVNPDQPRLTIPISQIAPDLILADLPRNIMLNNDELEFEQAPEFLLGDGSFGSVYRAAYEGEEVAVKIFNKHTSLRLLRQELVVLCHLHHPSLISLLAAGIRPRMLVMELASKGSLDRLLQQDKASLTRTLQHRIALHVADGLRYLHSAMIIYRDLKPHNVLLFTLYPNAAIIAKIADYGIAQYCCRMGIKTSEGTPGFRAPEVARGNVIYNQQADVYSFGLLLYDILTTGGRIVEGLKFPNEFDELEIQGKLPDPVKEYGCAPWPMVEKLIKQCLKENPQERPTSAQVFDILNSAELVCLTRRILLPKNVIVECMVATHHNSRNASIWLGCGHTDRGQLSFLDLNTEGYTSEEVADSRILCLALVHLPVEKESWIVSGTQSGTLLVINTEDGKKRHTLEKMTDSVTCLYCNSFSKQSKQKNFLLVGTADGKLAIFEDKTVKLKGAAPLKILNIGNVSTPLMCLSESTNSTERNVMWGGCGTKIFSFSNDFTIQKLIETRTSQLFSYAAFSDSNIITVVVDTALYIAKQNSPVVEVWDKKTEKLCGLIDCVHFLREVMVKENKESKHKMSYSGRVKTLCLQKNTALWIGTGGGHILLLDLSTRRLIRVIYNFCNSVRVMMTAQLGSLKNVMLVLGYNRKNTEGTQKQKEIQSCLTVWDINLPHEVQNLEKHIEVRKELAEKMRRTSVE
T1 sequence (P49759 129-484 limits assumed): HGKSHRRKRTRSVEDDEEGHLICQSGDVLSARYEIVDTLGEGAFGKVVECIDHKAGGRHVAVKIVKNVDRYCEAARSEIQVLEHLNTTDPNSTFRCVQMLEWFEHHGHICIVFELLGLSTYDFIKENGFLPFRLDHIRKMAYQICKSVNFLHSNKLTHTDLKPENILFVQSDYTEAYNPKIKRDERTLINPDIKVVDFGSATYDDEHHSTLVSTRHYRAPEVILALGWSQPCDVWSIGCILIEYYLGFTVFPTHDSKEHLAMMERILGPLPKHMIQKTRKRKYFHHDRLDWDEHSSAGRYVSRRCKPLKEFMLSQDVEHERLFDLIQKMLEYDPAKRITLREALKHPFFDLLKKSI

For the compound `O=C(c1ccc(Nc2nc(NC3CC3)c3c(C(F)(F)F)c[nH]c3n2)c2c1OCCO2)N1CCN(C2COC2)CC1` [Example 405, (8-((4-(cyclo-propylamino)-5-(trifluoromethyl)-7H-pyrrolo[2,3-d]pyrimidin-2-yl)amino)-2,3-dihydrobenzo[b] [1,4]dioxin-5-yl) (4-(oxetan-3-yl)piperazin-1-yl)methanone], the IC50 against LRRK2 and on human GST-CLK1 was under 100 nM each time.

For the compound `O=C(c1ccc(Nc2nc(NC3CCC3)c3c(C(F)(F)F)c[nH]c3n2)c2c1OCCO2)N1CCN(C2COC2)CC1` [Example 407, (8-((4-(cyclo-butylamino)-5-(trifluoromethyl)-7H-pyrrolo[2,3-d]pyrimidin-2-yl)amino)-2,3-dihydrobenzo[b] [1,4]dioxin-5-yl) (4-(oxetan-3-yl)piperazin-1-yl)methanone], the IC50 at LRRK2 and on human GST-CLK1 was under 100 nM each time.

With `CNc1nc(Nc2ccc(P3(=O)CCN(C4CC4)CC3)cc2OC)nc2[nH]cc(C(F)(F)F)c12` [Example 411, 1-cyclopropyl-4-(3-methoxy-4-((4-(methylamino)-5-(trifluoromethyl)-7H-pyrrolo[2,3-d]pyrimidin-2-yl)amino)phenyl)-1,4-azaphosphinane-4-oxide], the half-inhibitory concentration (IC50) at LRRK2 and on human GST-CLK1 was under 100 nM each time.

As to `O=C(c1ccc(Nc2nc(NC3CCCC3)c3c(C(F)(F)F)c[nH]c3n2)c2c1OCCO2)N1CCN(C2COC2)CC1` [Example 414, (8-((4-(cyclopentyl-amino)-5-(trifluoromethyl)-7H-pyrrolo[2,3-d]pyrimidin-2-yl)amino)-2,3-dihydrobenzo[b] [1,4]dioxin-5-yl) (4-(oxetan-3-yl)piperazin-1-yl)methanone], the IC50 against LRRK2 and against human GST-CLK1 was under 100 nM throughout.

Regarding `CCNc1nc(Nc2ccc(S(=O)(=O)N3CCC(N4CCOCC4)CC3)c3c2OCCO3)nc2[nH]cc(C(F)(F)F)c12` [Example 430, N^4-ethyl-N^2-(8-((4-morpholino-piperidin-1-yl)sulfonyl)-2,3-dihydro-benzo[b][1,4]dioxin-5-yl)-5-(trifluoromethyl)-7H-pyrrolo[2,3-d]pyrimidine-2,4-diamine], the concentration for half-maximal inhibition (IC50) on LRRK2 is under 100 nM; on human GST-CLK1 it was 101 to 300 nM.

For `O=C(c1ccc(Nc2nc(NC3CC3)c3c(C(F)(F)F)c[nH]c3n2)c2c1CCO2)N1CCC(N2CCOCC2)CC1` [Example 434, (7-((4-(cyclopropyl-amino)5-(trifluoromethyl)-7H-pyrrolo[2,3-d]pyrimidin-2-yl)amino)-2,3-dihydrobenzo-furan-4-yl)(4-morpho-linopiperidin-1-yl)methanone], the IC50 on LRRK2 and on human GST-CLK1 was under 100 nM in each case.

Regarding `COc1cc(P2(=O)CCN(C3CCOCC3)CC2)ccc1Nc1nc(NC2CC2)c2c(C(F)(F)F)c[nH]c2n1` [Example 435, 4-(4-((4-(cyclo-propylamino)-5-(trifluoromethyl)-7H-pyrrolo[2,3-d]pyrimidin-2-yl)amino)-3-methoxyphenyl)-1-(tetrahydro-2H-pyran-4-yl)-1,4-azaphosphinane 4-oxide], the IC50 at LRRK2 and against human GST-CLK1 was under 100 nM each time.

Take `CCNc1nc(Nc2ccc(C(=O)N3CCC(N4CCOCC4)CC3)c3c2OCC3)nc2[nH]cc(C(F)(F)F)c12` [Example 438, (7-((4-(ethylamino)-5-(trifluoromethyl)-7H-pyrrolo[2,3-d]pyrimidin-2-yl)amino)-2,3-dihydrobenzo-furan-4-yl)(4-morpho-linopiperidin-1-yl)methanone]: the half-maximal inhibitory concentration (IC50) at LRRK2 and at human GST-CLK1 was under 100 nM each time.

Turning to `COCCNc1nc(Nc2ccc(C(=O)N3CCC(N4CCOCC4)CC3)c3c2OCC3)nc2[nH]cc(C(F)(F)F)c12` [Example 443, (7-((4-((2-methoxyethyl)amino)-5-(trifluoromethyl)-7H-pyrrolo[2,3-d]pyrimidin-2-yl)amino)-2,3-dihydrobenzo-furan-4-yl)(4-morpho-linopiperidin-1-yl)methanone], the IC50 against LRRK2 and against human GST-CLK1 was under 100 nM in each case.

With `COCCNc1nc(Nc2ccc(P3(=O)CCN(C4CCOCC4)CC3)cc2OC)nc2[nH]cc(C(F)(F)F)c12` [Example 444, 4-(3-methoxy-4-((4-((2-methoxyethyl)amino)-5-(trifluoromethyl)-7H-pyrrolo[2,3-d]pyrimidin-2-yl)amino)phenyl)-1-(tetrahydro-2H-pyran-4-yl)-1,4-azaphosphinane 4-oxide], the IC50 against LRRK2 and against human GST-CLK1 was under 100 nM in each case.

Consider `CCCNc1nc(Nc2ccc(C(=O)N3CCC(N4CCOCC4)CC3)c3c2OCC3)nc2[nH]cc(C(F)(F)F)c12` [Example 446, (4-morpholino-piperidin-1-yl)(7-((4-(propylamino)-5-(trifluoromethyl)-7H-pyrrolo[2,3-d]pyrimidin-2-yl)amino)-2,3-dihydrobenzo-furan-4-yl)methanone], for which the IC50 on LRRK2 and against human GST-CLK1 was under 100 nM throughout.

As for `O=C(c1ccc(Nc2nc(NCC3CC3)c3c(C(F)(F)F)c[nH]c3n2)c2c1CCO2)N1CCC(N2CCOCC2)CC1` [Example 461, (7-((4-((cyclo-propylmeth-yl)amino)-5-(trifluoromethyl)-7H-pyrrolo[2,3-d]pyrimidin-2-yl)amino)-2,3-dihydrobenzo-furan-4-yl)(4-morpho-linopiperidin-1-yl)methanone], the IC50 against LRRK2 and against human GST-CLK1 was under 100 nM each time.

On to `CCNc1nc(Nc2ccc(C(=O)N3CCC(N4C[C@@H]5C[C@H]4CO5)CC3)c3c2OCC3)nc2[nH]cc(C(F)(F)F)c12` [Example 468], for which the IC50 against LRRK2 and on human GST-CLK1 was under 100 nM throughout.

Take `CCNc1nc(Nc2ccc(C(=O)N3CC[C@H](N4CCOCC4)C3)c3c2OCC3)nc2[nH]cc(C(F)(F)F)c12` [Example 475, (S)-(7-((4-(ethylamino)-5-(trifluoromethyl)-7H-pyrrolo[2,3-d]pyrimidin-2-yl)amino)-2,3-dihydrobenzo-furan-4-yl)(3-morpholino-pyrrolidin-1-yl)methanone]: the IC50 against LRRK2 and on human GST-CLK1 was under 100 nM in each case.
